From publication PMC5218480 (PLoS ONE, 2017)

Test system: MV-4-11 cells
Assay: Gene expression microarray analysis (Affymetrix PrimeView) and GSEA
Assay type: cell-based, human
Parameters: RFU PODN (11730768_x_at) / Fold change /veh PODN (11730768_x_at) / RFU LINC00158 (11744669_a_at) / Fold change /veh LINC00158 (11744669_a_at) / RFU DUSP10 (11751237_a_at) / Fold change /veh DUSP10 (11751237_a_at) / RFU ID3 (11757404_x_at) / Fold change /veh ID3 (11757404_x_at) / RFU PLEKHG5 (11737974_s_at) / Fold change /veh PLEKHG5 (11737974_s_at) / RFU LRRC4B (11730491_at) / Fold change /veh LRRC4B (11730491_at) / RFU GIMAP4 (11747438_a_at) / Fold change /veh GIMAP4 (11747438_a_at) / RFU KRT8 (11758183_x_at) / Fold change /veh KRT8 (11758183_x_at) / RFU CNN1 (11734310_a_at) / Fold change /veh CNN1 (11734310_a_at) / RFU VPS37D (11726825_at) / Fold change /veh VPS37D (11726825_at) / RFU C10orf10 (11716522_x_at) / Fold change /veh C10orf10 (11716522_x_at) / RFU KIR2DL2 /// KIR2DL4 /// KIR2DL5A /// KIR2DL5B /// KIR2DS1 /// KIR2DS2 /// KIR2DS3 /// KIR2DS4 /// KIR3DL3 /// KIR3DL3 /// KIR3DS1 (11738374_at) / Fold change /veh KIR2DL2 /// KIR2DL4 /// KIR2DL5A /// KIR2DL5B /// KIR2DS1 /// KIR2DS2 /// KIR2DS3 /// KIR2DS4 /// KIR3DL3 /// KIR3DL3 /// KIR3DS1 (11738374_at) / RFU C1QL1 (11718748_at) / Fold change /veh C1QL1 (11718748_at) / RFU TMPRSS4 (11747572_a_at) / Fold change /veh TMPRSS4 (11747572_a_at) / RFU HAMP (11756126_x_at) / Fold change /veh HAMP (11756126_x_at) / RFU RNFT2 (11725882_a_at) / Fold change /veh RNFT2 (11725882_a_at) / RFU NR4A2 (11747474_a_at) / Fold change /veh NR4A2 (11747474_a_at) / RFU ABCC12 (11746883_a_at) / Fold change /veh ABCC12 (11746883_a_at) / RFU TMEM136 (11760407_x_at) / Fold change /veh TMEM136 (11760407_x_at) / RFU CLDN22 /// WWC2 (11732394_at) / Fold change /veh CLDN22 /// WWC2 (11732394_at) / RFU HLA-DPB1 (11760878_x_at) / Fold change /veh HLA-DPB1 (11760878_x_at) / RFU SPINT1 (11716480_a_at) / Fold change /veh SPINT1 (11716480_a_at) / RFU GAP43 (11754022_s_at) / Fold change /veh GAP43 (11754022_s_at) / RFU A4GNT (11735810_at) / Fold change /veh A4GNT (11735810_at) / RFU PRB3 (11715151_x_at) / Fold change /veh PRB3 (11715151_x_at) / RFU TUBB4B (11761932_at) / Fold change /veh TUBB4B (11761932_at) / RFU CAPN14 (11732068_a_at) / Fold change /veh CAPN14 (11732068_a_at) / RFU TMCC2 (11721928_a_at) / Fold change /veh TMCC2 (11721928_a_at) / RFU IRGQ (11745062_a_at) / Fold change /veh IRGQ (11745062_a_at) / RFU FAM174B (11720279_a_at) / Fold change /veh FAM174B (11720279_a_at) / RFU TMPRSS4 (11748680_a_at) / Fold change /veh TMPRSS4 (11748680_a_at) / RFU FAM212B (11763350_a_at) / Fold change /veh FAM212B (11763350_a_at) / RFU PLEKHG5 (11743358_a_at) / Fold change /veh PLEKHG5 (11743358_a_at) / RFU ZSCAN30 (11745921_a_at) / Fold change /veh ZSCAN30 (11745921_a_at) / RFU CMKLR1 (11741424_a_at) / Fold change /veh CMKLR1 (11741424_a_at) / RFU LOC101060620 /// MAPK8IP1 (11723275_at) / Fold change /veh LOC101060620 /// MAPK8IP1 (11723275_at) / RFU SPTSSB (11747773_x_at) / Fold change /veh SPTSSB (11747773_x_at) / RFU PRSS12 (11739890_at) / Fold change /veh PRSS12 (11739890_at) / RFU BIN1 (11741810_x_at) / Fold change /veh BIN1 (11741810_x_at) / RFU WNT11 (11732464_a_at) / Fold change /veh WNT11 (11732464_a_at) / RFU C10orf10 (11716521_a_at) / Fold change /veh C10orf10 (11716521_a_at) / RFU C5orf56 (11738089_at) / Fold change /veh C5orf56 (11738089_at) / RFU CYB561 (11721691_x_at) / Fold change /veh CYB561 (11721691_x_at) / RFU ANKRD19P (11752326_a_at) / Fold change /veh ANKRD19P (11752326_a_at) / RFU OR2T12 /// OR2T33 /// OR2T8 (11738714_s_at) / Fold change /veh OR2T12 /// OR2T33 /// OR2T8 (11738714_s_at) / RFU VCAN (11748164_a_at) / Fold change /veh VCAN (11748164_a_at) / RFU JSRP1 (11732532_at) / Fold change /veh JSRP1 (11732532_at) / RFU KRTAP10-11 (11738290_x_at) / Fold change /veh KRTAP10-11 (11738290_x_at) / RFU MYO3A (11730013_a_at) / Fold change /veh MYO3A (11730013_a_at) / RFU EBF3 (11725865_a_at) / Fold change /veh EBF3 (11725865_a_at) / RFU CAMK2N1 (11719241_x_at) / Fold change /veh CAMK2N1 (11719241_x_at) / RFU C5orf56 (11738088_a_at) / Fold change /veh C5orf56 (11738088_a_at) / RFU OLFML3 (11715873_a_at) / Fold change /veh OLFML3 (11715873_a_at) / RFU LOC100653217 /// NTM (11731650_a_at) / Fold change /veh LOC100653217 /// NTM (11731650_a_at) / RFU MAPK11 (11762145_a_at) / Fold change /veh MAPK11 (11762145_a_at) / RFU FIZ1 (11724087_x_at) / Fold change /veh FIZ1 (11724087_x_at) / RFU OASL (11726364_x_at) / Fold change /veh OASL (11726364_x_at) / RFU SOX15 (11748057_x_at) / Fold change /veh SOX15 (11748057_x_at) / RFU CD79A (11719716_a_at) / Fold change /veh CD79A (11719716_a_at) / RFU HIST1H1D (11736915_at) / Fold change /veh HIST1H1D (11736915_at) / RFU CASKIN2 (11723855_a_at) / Fold change /veh CASKIN2 (11723855_a_at) / RFU LOC730098 (11760151_x_at) / Fold change /veh LOC730098 (11760151_x_at) / RFU OR4N2 (11742367_at) / Fold change /veh OR4N2 (11742367_at) / RFU PRRT2 (11749266_a_at) / Fold change /veh PRRT2 (11749266_a_at) / RFU SNX32 (11753110_a_at) / Fold change /veh SNX32 (11753110_a_at) / RFU CDHR5 (11726645_a_at) / Fold change /veh CDHR5 (11726645_a_at) / RFU RCAN1 (11760418_a_at) / Fold change /veh RCAN1 (11760418_a_at) / RFU FAM167A (11723789_a_at) / Fold change /veh FAM167A (11723789_a_at) / RFU FAM26E (11764081_at) / Fold change /veh FAM26E (11764081_at) / RFU ISYNA1 (11749810_s_at) / Fold change /veh ISYNA1 (11749810_s_at) / RFU ACY1 (11761880_at) / Fold change /veh ACY1 (11761880_at) / RFU 11764098_at / Fold change /veh 11764098_at / RFU SAMD14 (11745864_x_at) / Fold change /veh SAMD14 (11745864_x_at) / RFU NPB (11741838_a_at) / Fold change /veh NPB (11741838_a_at) / RFU TMPRSS6 (11731388_a_at) / Fold change /veh TMPRSS6 (11731388_a_at) / RFU KRTAP10-2 (11738614_at) / Fold change /veh KRTAP10-2 (11738614_at) / RFU ARHGAP8 /// PRR5-ARHGAP8 (11727945_x_at) / Fold change /veh ARHGAP8 /// PRR5-ARHGAP8 (11727945_x_at) / RFU KRTAP5-7 /// NADSYN1 (11734609_at) / Fold change /veh KRTAP5-7 /// NADSYN1 (11734609_at) / RFU RASL12 (11751679_a_at) / Fold change /veh RASL12 (11751679_a_at) / RFU CDKN2B (11736163_a_at) / Fold change /veh CDKN2B (11736163_a_at) / RFU PRF1 (11729649_at) / Fold change /veh PRF1 (11729649_at) / RFU, ZNF638 /// ZNF638-IT1 / Fold change vs veh, ZNF638 /// ZNF638-IT1 / RFU, PANK3 / Fold change vs veh, PANK3 / RFU, SH3YL1 / Fold change vs veh, SH3YL1 / RFU, ZEB2 / Fold change vs veh, ZEB2 / RFU, NRIP1 / Fold change vs veh, NRIP1 / RFU, PTTG1IP / Fold change vs veh, PTTG1IP / RFU, CAPN2 / Fold change vs veh, CAPN2 / RFU, MED14 / Fold change vs veh, MED14 / RFU, SNORA58 / Fold change vs veh, SNORA58 / RFU, C1orf63 / Fold change vs veh, C1orf63 / RFU, LRRFIP1 / Fold change vs veh, LRRFIP1 / RFU, NDUFAF7 / Fold change vs veh, NDUFAF7 / RFU, SLC12A2 / Fold change vs veh, SLC12A2 / RFU, IBTK / Fold change vs veh, IBTK / RFU, ESF1 / Fold change vs veh, ESF1 / Fold change vs veh, TMEM50B / RFU, TAOK1 / Fold change vs veh, TAOK1 / RFU, ACBD3 / Fold change vs veh, ACBD3 / RFU, TMA16 / Fold change vs veh, TMA16 / RFU, RWDD3 / Fold change vs veh, RWDD3 / RFU, BCAT1 / Fold change vs veh, BCAT1 / RFU, EDEM3 / Fold change vs veh, EDEM3 / RFU, TMEM33 / Fold change vs veh, TMEM33 / RFU, WDR75 / Fold change vs veh, WDR75 / RFU, AHCTF1 / Fold change vs veh, AHCTF1 / RFU, TFRC / Fold change vs veh, TFRC / RFU, ZDHHC17 / Fold change vs veh, ZDHHC17 / RFU, NOM1 / Fold change vs veh, NOM1 / RFU, ARL8B / Fold change vs veh, ARL8B / RFU, ZBTB11 / Fold change vs veh, ZBTB11 / RFU, TAMM41 / Fold change vs veh, TAMM41 / RFU, KIAA1704 /// LOC100996395 / Fold change vs veh, KIAA1704 /// LOC100996395 / RFU, ING1 / Fold change vs veh, ING1 / RFU, TRMT61B / Fold change vs veh, TRMT61B / RFU, FUBP3 / Fold change vs veh, FUBP3 / RFU, TP53 / Fold change vs veh, TP53 / RFU, TNKS2 / Fold change vs veh, TNKS2 / RFU, ZFP14 / Fold change vs veh, ZFP14 / RFU, ACTR2 / Fold change vs veh, ACTR2 / RFU, PPP3R1 / Fold change vs veh, PPP3R1 / RFU, PIK3R1 / Fold change vs veh, PIK3R1 / RFU, HNRNPA1 / Fold change vs veh, HNRNPA1 / RFU, RNF170 / Fold change vs veh, RNF170 / RFU, ZNF28 / Fold change vs veh, ZNF28 / RFU, RNGTT / Fold change vs veh, RNGTT / RFU, OGT / Fold change vs veh, OGT / RFU, BRD1 / Fold change vs veh, BRD1 / RFU, MARS / Fold change vs veh, MARS / RFU, ZNF655 / Fold change vs veh, ZNF655 / RFU, FAHD1 / Fold change vs veh, FAHD1 / RFU, BDP1 / Fold change vs veh, BDP1 / RFU, LRRCC1 / Fold change vs veh, LRRCC1 / RFU, ARID1A / Fold change vs veh, ARID1A / RFU, ZNF146 / Fold change vs veh, ZNF146 / RFU, ZNF330 / Fold change vs veh, ZNF330 / RFU, GPN3 / Fold change vs veh, GPN3 / RFU, C9orf123 / Fold change vs veh, C9orf123 / RFU, N4BP2L2 / Fold change vs veh, N4BP2L2 / RFU, ARFIP1 / Fold change vs veh, ARFIP1 / RFU, FAM179B / Fold change vs veh, FAM179B / RFU, BCL10 / Fold change vs veh, BCL10 / RFU, UHRF1BP1L / Fold change vs veh, UHRF1BP1L / RFU, BET1 / Fold change vs veh, BET1 / RFU, CNOT2 / Fold change vs veh, CNOT2 / RFU, ZNF268 / Fold change vs veh, ZNF268 / Fold change vs veh, ZNF507 / RFU, DGCR2 / Fold change vs veh, DGCR2 / RFU, WDSUB1 / Fold change vs veh, WDSUB1 / Fold change vs veh, HSP90B1 /// MIR3652 / RFU, ADSS / Fold change vs veh, ADSS / RFU, GK / Fold change vs veh, GK / RFU, ZNF148 / Fold change vs veh, ZNF148 / RFU, TAF9 / Fold change vs veh, TAF9 / RFU, SLC1A5 / Fold change vs veh, SLC1A5 / RFU, SLMO2 / Fold change vs veh, SLMO2 / RFU, ABCC4 / Fold change vs veh, ABCC4 / RFU, LOC101060439 /// RAP1B / Fold change vs veh, LOC101060439 /// RAP1B / RFU, RFX7 / Fold change vs veh, RFX7 / RFU, GTPBP10 / Fold change vs veh, GTPBP10 / RFU, CNEP1R1 / Fold change vs veh, CNEP1R1 / RFU, BIVM-ERCC5 /// ERCC5 / Fold change vs veh, BIVM-ERCC5 /// ERCC5 / RFU, ILF3 / Fold change vs veh, ILF3 / RFU 11762660_at / Fold change /veh 11762660_at / RFU VCAN (11757783_s_at) / Fold change /veh VCAN (11757783_s_at) / RFU DDX43 (11728927_at) / Fold change /veh DDX43 (11728927_at) / RFU KRT8 (11758188_x_at) / Fold change /veh KRT8 (11758188_x_at) / RFU NKD1 (11759106_at) / Fold change /veh NKD1 (11759106_at) / RFU SRD5A1 (11742802_a_at) / Fold change /veh SRD5A1 (11742802_a_at) / RFU TPSAB1 /// TPSB2 (11721975_s_at) / Fold change /veh TPSAB1 /// TPSB2 (11721975_s_at) / RFU GSTM3 (11746129_a_at) / Fold change /veh GSTM3 (11746129_a_at) / RFU IL23R (11737362_x_at) / Fold change /veh IL23R (11737362_x_at) / RFU TMEM51 (11727254_a_at) / Fold change /veh TMEM51 (11727254_a_at) / RFU PIWIL2 (11732686_x_at) / Fold change /veh PIWIL2 (11732686_x_at) / RFU ORM1 (11744905_x_at) / Fold change /veh ORM1 (11744905_x_at) / RFU CCDC152 (11743942_at) / Fold change /veh CCDC152 (11743942_at) / RFU ECM1 (11717891_a_at) / Fold change /veh ECM1 (11717891_a_at) / RFU IL23R (11748794_a_at) / Fold change /veh IL23R (11748794_a_at) / RFU TNFAIP8L3 (11732012_x_at) / Fold change /veh TNFAIP8L3 (11732012_x_at) / RFU MBOAT4 (11741988_at) / Fold change /veh MBOAT4 (11741988_at) / RFU 11764193_at / Fold change /veh 11764193_at / RFU TMEM53 (11763286_at) / Fold change /veh TMEM53 (11763286_at) / RFU MAGEB2 (11727129_at) / Fold change /veh MAGEB2 (11727129_at) / RFU TMEM200A (11744735_a_at) / Fold change /veh TMEM200A (11744735_a_at) / RFU CCDC152 (11751479_a_at) / Fold change /veh CCDC152 (11751479_a_at) / RFU FAM211A (11726209_a_at) / Fold change /veh FAM211A (11726209_a_at) / RFU RGS16 (11746705_a_at) / Fold change /veh RGS16 (11746705_a_at) / RFU VCAN (11755009_s_at) / Fold change /veh VCAN (11755009_s_at) / RFU RHOB (11743442_s_at) / Fold change /veh RHOB (11743442_s_at) / RFU RGS16 (11720943_a_at) / Fold change /veh RGS16 (11720943_a_at) / RFU RGS16 (11720944_at) / Fold change /veh RGS16 (11720944_at) / RFU, VPS4B / Fold change vs veh, VPS4B / RFU, CREB1 / Fold change vs veh, CREB1 / RFU, DNAJC13 / Fold change vs veh, DNAJC13 / RFU, GNAQ / Fold change vs veh, GNAQ / RFU, CDK5R1 / Fold change vs veh, CDK5R1 / RFU, ZRANB3 / Fold change vs veh, ZRANB3 / RFU, CUL4A / Fold change vs veh, CUL4A / RFU, CCNY / Fold change vs veh, CCNY / RFU, UFL1 / Fold change vs veh, UFL1 / RFU, COG3 / Fold change vs veh, COG3 / RFU, DIAPH2 / Fold change vs veh, DIAPH2 / RFU, SKA2 / Fold change vs veh, SKA2 / RFU, AFF3 / Fold change vs veh, AFF3 / RFU, LMF1 / Fold change vs veh, LMF1 / RFU, IPO11 / Fold change vs veh, IPO11 / RFU, DFFB / Fold change vs veh, DFFB / RFU, FOXP1 / Fold change vs veh, FOXP1 / RFU, CARD8 / Fold change vs veh, CARD8 / RFU, STRN3 / Fold change vs veh, STRN3 / RFU, ADK / Fold change vs veh, ADK / RFU, RASSF2 / Fold change vs veh, RASSF2 / RFU, WIPF1 / Fold change vs veh, WIPF1 / RFU, LARP1B / Fold change vs veh, LARP1B / RFU, RASA1 / Fold change vs veh, RASA1 / RFU, RB1 / Fold change vs veh, RB1 / RFU, PPFIA1 / Fold change vs veh, PPFIA1 / RFU, MAT2A / Fold change vs veh, MAT2A / RFU, CCT5 / Fold change vs veh, CCT5 / RFU, WDR92 / Fold change vs veh, WDR92 / RFU, CUX1 / Fold change vs veh, CUX1 / RFU, TTC7A / Fold change vs veh, TTC7A / RFU, TMEM135 / Fold change vs veh, TMEM135 / RFU, DEPTOR / Fold change vs veh, DEPTOR / RFU, CPM / Fold change vs veh, CPM / RFU, DNAJB6 / Fold change vs veh, DNAJB6 / RFU, CACNA2D3 / Fold change vs veh, CACNA2D3 / RFU, DTX4 / Fold change vs veh, DTX4 / RFU, TFCP2 / Fold change vs veh, TFCP2 / RFU, GMCL1 /// GMCL1P1 / Fold change vs veh, GMCL1 /// GMCL1P1 / RFU, AEBP2 / Fold change vs veh, AEBP2 / RFU, SNHG1 /// SNORD22 /// SNORD25 /// SNORD26 /// SNORD27 /// SNORD28 /// SNORD29 /// SNORD31 / Fold change vs veh, SNHG1 /// SNORD22 /// SNORD25 /// SNORD26 /// SNORD27 /// SNORD28 /// SNORD29 /// SNORD31 / Fold change (Aza/veh), C12orf56 (ProbeSet 11735607_a_at) / Fold change (ACY-1035/veh), C12orf56 (ProbeSet 11735607_a_at) / Fold change (Aza/veh), FGFR1OP (ProbeSet 11751329_s_at) / Fold change (ACY-1035/veh), FGFR1OP (ProbeSet 11751329_s_at) / Fold change (Aza/veh), VPS36 (ProbeSet 11739960_a_at) / Fold change (ACY-1035/veh), VPS36 (ProbeSet 11739960_a_at) / RFU SYPL1 (11715823_x_at) / Fold change /veh SYPL1 (11715823_x_at) / RFU IGFBP7 (11715501_s_at) / Fold change /veh IGFBP7 (11715501_s_at) / RFU REEP3 (11722064_at) / Fold change /veh REEP3 (11722064_at) / RFU IGLL1 (11728026_x_at) / Fold change /veh IGLL1 (11728026_x_at): dose or concentration left out as unconfirmed
Conditions: MV-4-11 cells, 48 hours

SMILES: Nc1ccc(-c2cccs2)cc1NC(=O)c1ccc2c(c1)cc(C1CC1)n2CCN1CCOCC1 [ACY-1035]
- RFU CCDC152 (11751479_a_at): 4.13 RFU
